The subject of test [1] is Neisseria gonorrhoeae. Put plainly: Antimicrobial activity against Neisseria gonorrhoeae isolate 3783. It is filed as functional.
Test [2] deals with Neisseria gonorrhoeae. Put plainly: Antimicrobial activity against high-level azithromycin resistant Neisseria gonorrhoeae isolate 1782 harboring A2143G mutation in peptidyltransferase loop in domain V of 23S rRNA alleles. It is filed as functional.
In test [3] the test system is Neisseria gonorrhoeae. The test can be described thus: Antimicrobial activity against azithromycin resistant Neisseria gonorrhoeae isolate 2498 harboring C2599T mutation in peptidyltransferase loop in domain V of 23S rRNA alleles. It is filed as functional.
Test [4] deals with Neisseria gonorrhoeae. The test can be described thus: microbe, parasite or virus in culture.
Description: Antimicrobial activity against azithromycin resistant Neisseria gonorrhoeae isolate harboring C2599T mutation in peptidyltransferase loop in domain V of 23S rRNA alleles and T insertion in mtrR gene promoter region

≈ marks a conversion by molar mass, not a printed value. Where only a bound is given, the exact number is not on record here.

`CC[C@H]1OC(=O)[C@H](C)[C@@H](O[C@H]2C[C@@](C)(OC)[C@@H](O)[C@H](C)O2)[C@H](C)[C@@H](O[C@@H]2O[C@H](C)C[C@H](N(C)C)[C@H]2O)[C@](C)(O)C[C@@H](C)CN(C)[C@H](C)[C@@H](O)[C@]1(C)O` [AZITHROMYCIN]: the MIC with Neisseria gonorrhoeae [1] is 0.06 µg/mL (≈ 0.0801 µM); against Neisseria gonorrhoeae [2] it was above 2050 µg/mL; in the test with Neisseria gonorrhoeae [3] it was 8 µg/mL (≈ 10.7 µM); with Neisseria gonorrhoeae [4], 4 µg/mL (≈ 5.34 µM).
